Data published in patent US11969425B2, “Inhibitor of indoleamine-2,3-dioxygenase (IDO)” (InventisBio LLC, priority 2016, dated 2024).
Read-outs that look alike come from different tables or passages of the source.

Legend:
[1] = system: kynurenine production in SKOV-3 cells; assay: Inhibition of kynurenine production in SKOV-3 cells; type: cell-based, human
Procedure: The effect of compounds described herein on the inhibition of kynurenine production in HeLa cells (derived from human cervical cancer) was determined. HeLa cells were seeded into a 96-well culture plate at a density of 5×10^3 per well in RPMI1640/phenol red free media (from GIBCO) with 2 mM L-glutamine and 10% fetal bovine serum (FBS, from GIBCO) and grown overnight in a 37° C. incubator with 5% CO2. Twenty-four hours later, human IFN-γ (from GIBCO) (final concentration 50 ng/mL) and test compound solutions (serially diluted to different wells) were added to each well with a final volume of 200 uL per well. Forty-eight hours after incubation with compounds, 140 uL supernatant was taken from each well and was transferred to a new 96-well plate. Ten microliters of 6.1 N trichloroacetic acid were added into each well, mixed and incubated at 50° C. for 30 minutes. […] The yellow color derived from kynurenine was measured at 480 nm using a SPECTRAmax i3 reader. Each compound concentration was done in triplicates and compound IC50 value was calculated using nonlinear regression using Graphpad Prism 5.0.
The effect of compounds described herein on the inhibition of kynurenine production in SKOV-3 cells (derived from human ovarian cancer) was determined using a similar experimental procedure as described in Example A. Exemplary results are shown in FIG. 1. […]

[2] = system: kynurenine production in HeLa cells; assay: Inhibition of kynurenine production in HeLa cells; type: cell-based, human; details: 48 h, HeLa cells, human IFN-γ 50 ng/mL, kynurenine read at 480 nm, read-out: IC50
pooled human hepatocytes = assay: Human hepatocyte clearance study; type: in vitro ADME
Procedure: (§1) The in vitro human hepatocyte clearance of compounds described here was studied using pooled human hepatocytes purchased from BioreclamationIVT (Westbury, NY, Cat #X008001, Lot #TQJ). The assay was conducted according to manufacture's instruction. Briefly, 10 mM stock solutions of test compounds and positive control (Verapamil) were prepared in 100% DMSO. Thawing media (50 mL) used in the study consists of: 31 mLWilliams E medium (GIBCO Cat #12551-032); 15 mL isotonic percoll (GE Healthcare Cat #17-0891-09); 500 uL 100XGlutaMax (GIBCO Cat #35050); 750 uL HEPES (GIBCO Cat #15630-080); 2.5 mL FBS (Corning Cat #35-076*CVR); 50 uL human insulin (GIBCO Cat #12585-014) and 5 uL dexamethasone (NICPBP). Incubation media is made of Williams E medium supplemented with 1xGlutaMax. Both thawing medium and incubation medium (serum-free) were placed in a 37° C. water bath for at least 15 minutes prior to use. Compound stock solutions were diluted to 100 μM by combining 198 μL of 50% acetonitrile/50% water and 2 μL of 10 mM stock solution. Verapamil was use as positive control in the assay. Vials of cryopreserved hepatocytes were removed from storage and thawed in a 37° C. water bath with gentle shaking. Contents of the vial were poured into the 50 mL thawing medium conical tube. Vials were centrifuged at 100 g for 10 minutes at room temperature. Thawing medium was aspirated and hepatocytes were re-suspended with serum-free incubation medium to yield ˜1.5×10^6 cells/mL. Hepatocyte viability and density were counted using a Trypan Blue exclusion, and then cells were diluted with serum-free incubation medium to a working cell density of 0.5×10^6 viable cells/mL. Then, a portion of the hepatocytes at 0.5×10^6 viable cells/mL was boiled for 5 minutes prior to adding to the plate as negative control to eliminate the enzymatic activity so that little or no substrate turnover should be observed. The boiled hepatocytes were used to prepare negative samples. Aliquots of 198 μL hepatocytes were dispensed into each well of a 96-well non-coated plate. The plate was placed in the incubator on an orbital shaker at 500 rpm for approximately 10 minutes. Aliquots of 2 μL of the 100 μM test compound or positive control were added into respective wells of the non-coated 96-well plate to start the reaction. This assay was performed in duplicate. The plate was incubated in the incubator on an orbital shaker at 500 rpm for the designated time points. Twenty-five microliter of contents were transferred and mixed with 6 volumes (150 μL) of cold acetonitrile with IS (200 nM imipramine, 200 nM labetalol and 200 nM diclofenac) to terminate the reaction at time points of 0, 15, 30, 60, 90 and 120 minutes. Samples were centrifuged at 3,220 g for 25 minutes and aliquots of 150 μL of the supernatants were used for LC-MS/MS analysis. For data analysis, all calculations were carried out using Microsoft Excel. Peak areas were determined from extracted ion chromatograms. The in vitro half-life (t1/2) of parent compound was determined by regression analysis of the percent parent disappearance vs. time curve. The in vitro half-life (in vitro t1/2) was determined from the slope value: in vitro t1/2=0.693/k. […] Scaling factors for in vivo intrinsic clearance prediction using human hepatocytes are listed as: liver weight (g liver/kg body weight): 25.7; hepatocyte concentration (10^6 cells/g liver): 99; scaling factor: 2544.3.

[3] = Human hepatocyte clearance study; type: in vitro ADME; details: pooled cryopreserved human hepatocytes (suspension)
Procedure: as §1

[4] = system: LPS-induced plasma kynurenine; assay: Inhibition of LPS induced plasma kynurenine in mice; type: in vivo; details: Balb/c mouse, 5 mg/kg LPS i.p. plus oral 30 mpk
Procedure: The effect of compounds described herein on the inhibition of lipopolysaccharide (LPS)-induced plasma kynurenine in mouse was determined. Female Balb/c mouse (˜20 g, obtained from Vital River Laboratory Animal Co. LTD) was treated with either vehicle control (saline) or 5 mg/kg LPS via intraperitoneal injection, followed by an oral dose of 30 mpk compound 9 within 5 minutes of LPS injection. Blood samples (500 uL) were collected into K2EDTA tube via retro-orbital puncture at 12 and 24 hrs (terminal bleeding) after treatment with LPS or LPS plus compound 9. For vehicle control group, plasma samples were collected at 24 hour post dose. Blood samples were put on ice after collection and centrifuged at 4° C. (2000 g, 5 minutes) immediately after collection to obtain the plasma. Plasma kynurenine level was determined by LC-MS/MS analysis. Each group contains 3 mice and mean plasma kynurenine level was plotted in FIG. 2.

[5] = system: T cells and HeLa cells co-culture; assay: T cells and HeLa cells co-culture assay (IFN-gamma production); type: cell-based, human; details: CD3 T cells + HeLa cells, 72 hr, FIG. 4; read-out: EC50, production of IFN-gamma in the T cells and HeLa cells co-culture media
Procedure: HeLa cells were seeded into 96-well plate (5000 cells per well in 100 μL of cell growth media DMEM with 10% FBS and 1% pen/strep) and incubated at 37° C. with 5% CO2. After overnight incubation, 200 μL of INF-gamma (50 ng/ml in growth media) was added to the plate and returned to incubator for another 48 hr. SepMater™-50 centrifuge tube was used to isolate PBMC from human donor according to manufacture's instruction (Stemcell). The CD3 T cell was then isolated from the PBMC using EasySep Human T cell isolation kit (Stemcell). Wash the 96-well plat twice with 200 μL of co-culture media (RPMI-1640+10% FBS+1% Pen/strep). Adjust the CD3 T cells density to 5×10^5 cells/ml with high dose anti-CD3/CD28 beads and co-culture medium (RPMI-1640+10% FBS+1% Pen/strep) and seed 200 μL/well into 96-well plate. Compound at different concentration was added to each well and the plate was incubated for a further 72 hr. Level of INF-gamma in the co-culture media (100 μL) was analyzed using the Human IFN-gamma ELISA Ready-SET-GO kit from eBioscience.

SMILES	IC50 ([1]; Homo sapiens, SK-OV-3, FIG. 1) [nM]	IC50 ([2]; Homo sapiens, HeLa) [nM]	Human Hepatocyte Remaining Percentage @ 120 min (pooled human hepatocytes; pooled human hepatocytes)	CLint scaled at 1 µM ([3]; human, scaled up from in vitro t1/2, scaling factor 2544.3, read-out: Human Scale-up Clint) [mL/min/kg]	hepatocyte CLint at 1 µM ([3]; pooled human hepatocytes, read-out: Human In vitro Clint (μL/min/10^6 cells)) [µL/min/1e6 cells]	half-life at 1 µM ([3]; pooled human hepatocytes, read-out: Human In vitro T1/2) [h]	drop of plasma kynurenine compared to the LPS treatment alone ([4]; 12 hour time point) [%]	drop of plasma kynurenine compared to the LPS treatment alone ([4]; 24 hour time point) [%]	IC50 ([1]; FIG. 1) [nM]	IC50 [2] [nM]	Human In vitro Clint (μL/min/10^6 cells) (pooled human hepatocytes; pooled human hepatocytes)	Human In vitro T1/2 (pooled human hepatocytes; pooled human hepatocytes) [h]	Human Scale-up Clint (pooled human hepatocytes; scaled up from in vitro t1/2, scaling factor 2544.3) [mL/min/kg]	EC50 [5] [nM]
CC(C)CN(CC(C)C)c1ccc(C2(C(=O)O)CCCC2)cc1NC(=O)Nc1ccc(F)cc1F [Compound 9, 1-[4-[bis(2-methylpropyl)amino]-3-[[(2,4-difluorophenyl)carbamoyl]amino]phenyl]cyclopentane-1-carboxylic acid]	7.4	2.2	79	10	3	7.05	72	85						
NS(=O)(=O)NCCNc1nonc1/C(=N/O)Nc1ccc(F)c(Br)c1 [INCB-24360, reference compound]			35						10.2	6.9	19	1.22	48	41
